Test results as given in US4000297A, “N-p-chlorobenzoyl tryptophane, salts and compositions thereof” (priority 1971, dated 1976).
Where a name gives a salt, the structure may show the parent alone. Read-outs that look alike come from different tables or passages of the source.

Legend:
Solubility = format: physicochemical; conditions: for solubility / Solubility in water: water; for Solubility in water: in words
[1] = system: gastric lesions from Indomethacin; experiment: Protective activity against gastric lesions due to Indomethacin; format: in vivo, rats; conditions: for ED50: Rattus norvegicus, po, 4 h, read-out: Protective activity ED50; for Protective activity ED50: 240 min
Method: The activity is defined as the dose in mg/kg of body weight to the animal, which prevents in 50% of the treated subjects arising of lesions due to Indomenthacin.
The protective preparations are administered orally in aqueous suspension.

gastric secretion [2] = experiment: Comparison of antisecretive activity, rats with tied pylorus, oral aqueous suspension; format: in vivo; conditions: for ED50: Rattus norvegicus, po, read-out: Antisecretive activity (dose which reduces the gastric secretion by 50%)
Method: (*)The antisecretive activity is defined as the dose in mg/kg of body
weight of the animal, which reduces the gastric secretion by 50%. The
evaluation is effected by considering the decrease in quantity of secrete
gastric juice as compared with controls. Rats of an average weight of 200
± 20 grams are employed of which the lower part of the stomach at the
level of the pylorus is tied to collect the gastric juice during the
indicated periods. The preparations are administered orally in the form o

[3] = system: transit through the stomach and intestine; experiment: Anti-spastic activity, vegetable carbon (charcoal) test, rate of transit through the stomach and intestine; format: in vivo, mice; conditions: for ED50: Mus musculus, 2 h; for Antispastic activity ED50: 120 min; for Ratio 3/2: anti-secretive ED50 / anti-spastic ED50 (Table 3)
Method: Particularly marked is the anti-spastic activity which the present compounds exercise on the entire digestive system. Measured in the mouse, using the vegetable carbon test (rate of transit through the stomach and intestine), this activity is in some cases comparatively greater than the anti-secretive activity (Table 3).
(*)The antispastic activity is measured in mice of an average weight of […]
± 3 g by administering a suspension of charcoal in gum arabic and
checking after two hours whether the charcoal has reached the initial
portion of the colon. In non-treated subjects the charcoal reaches this
transit of the charcoal. Evaluation of the results is effected as
ED50 in mg/kg body weight of the animal, i.e., the dose at which the […]

gastric secretion [4] = experiment: Anti-secretive activity in the rat by gastric stimulus, oral; format: in vivo; conditions: oral (Table 1); for ED50: read-out: Activity B: anti-secretive activity ED50
Method: *3 Anti-secretive activity in the rat by gastric stimulus, ED50 mg/k

gastric secretion [5] = experiment: Anti-secretive activity in the rat with lig. pylorus, iv; format: in vivo
[6] = Acute toxicity (DL50) in the mouse; format: in vivo; conditions: iv (Table 1); for LD50: in vivo, read-out: DL50 value
Text: *1 DL50 in the mouse mg/kg iv.
Examples of differences between toxicity (DL50 in
the mouse) by intravenous administration and oral
administration in mg/kg. Variation in therapeutic

[7] = oral, Indomethacin 16 mg/kg orally
[8] = charcoal after two hours, orally (later Table 3)
[9] = rat with lig. pylorus, iv (Table 1), read-out: Activity A: anti-secretive activity ED50
[10] = po, charcoal after two hours, orally (later Table 3), read-out: Antispastic activity ED50
[11] = Rattus norvegicus, iv, compared with anti-spastic activity (Table 3), read-out: Anti-secretive activity ED50
[12] = mouse, vegetable carbon test (Table 3), read-out: Anti-spastic activity ED50
[13] = Rattus norvegicus, iv, read-out: Activity A: anti-secretive activity ED50
[14] = rat with lig. pylorus, iv (Table 1)

O=C(N[C@@H](Cc1c[nH]c2ccccc12)C(=O)[O-])OCc1ccc(Cl)cc1.[Na+]
Solubility in acetone (Solubility): Highly soluble | Solubility in ethanol (Solubility): Highly soluble | Solubility in methanol (Solubility): Highly soluble | solubility (Solubility): ~50 mg/mL

O=C(N[C@@H](Cc1c[nH]c2ccccc12)C(=O)[O-])c1ccc(Cl)cc1.[Na+]
ED50 [1]: 210 mg/kg | Solubility in acetone (Solubility): Highly soluble | Solubility in ethanol (Solubility): Highly soluble | Solubility in methanol (Solubility): Highly soluble | solubility (Solubility): ~50 mg/mL | ED50 (gastric secretion [2]; 2.5 h): 118 mg/kg | ED50 (gastric secretion [2]; 5 h): 141 mg/kg | ED50 (gastric secretion [2]; 10 h): 147 mg/kg | ED50 (gastric secretion [2]; 15 h): 410 mg/kg | ED50 ([3]; ip, read-out: Antispastic activity ED50): 82 mg/kg | ED50 ([3]; po, read-out: Antispastic activity ED50): 192 mg/kg

[OH][Al]([OH])[OH] [Aluminium hydroxide, reference compound]
Protective activity ([1]; 136mg/kg, oral): inactive

O=C(N[C@@H](Cc1c[nH]c2ccccc12)C(=O)O)OCc1ccc([N+](=O)[O-])cc1 [CR 438 - Calcium salt]
Protective activity ED50 [1, 7]: > 1500 mg/kg/os | Antisecretive activity (dose which reduces the gastric secretion by 50%) (gastric secretion [2]; oral, 2.5 hrs, 150 min): 810 mg/kg | Antisecretive activity (dose which reduces the gastric secretion by 50%) (gastric secretion [2]; oral, 5 hrs, 300 min): 780 mg/kg | Antisecretive activity (dose which reduces the gastric secretion by 50%) (gastric secretion [2]; oral, 10 hrs, 600 min): 972 mg/kg | Antispastic activity ED50 [3, 8]: > 1000 mg/kg

O=C(N[C@@H](Cc1c[nH]c2ccccc12)C(=O)O)OCc1ccc(Cl)cc1 [CR 449 calcium salt, N-p-chloro-carbobenzoxy-L-tryptophane calcium salt]
Protective activity ED50 ([1]; oral, Indomethacin 16 mg/kg orally, calcium salt): 121 mg/kg/os | Solubility in ethanol (Solubility): soluble | Solubility in methanol (Solubility): soluble | Solubility in water (Solubility): Very slightly soluble | Antisecretive activity (dose which reduces the gastric secretion by 50%) (gastric secretion [2]; oral, 2.5 hrs, calcium salt, 150 min): 142 mg/kg | Antisecretive activity (dose which reduces the gastric secretion by 50%) (gastric secretion [2]; oral, 5 hrs, calcium salt, 300 min): 112 mg/kg | Antisecretive activity (dose which reduces the gastric secretion by 50%) (gastric secretion [2]; oral, 10 hrs, calcium salt, 600 min): 110 mg/kg | Antisecretive activity (dose which reduces the gastric secretion by 50%) (gastric secretion [2]; oral, 15 hrs, calcium salt, 900 min): 106 mg/kg

O=C(N[C@@H](Cc1c[nH]c2ccccc12)C(=O)O)OCc1ccc(Br)cc1 [CR 451 - Calcium salt]
Protective activity ED50 [1, 7]: 392 mg/kg/os | Antisecretive activity (dose which reduces the gastric secretion by 50%) (gastric secretion [2]; oral, 2.5 hrs, 150 min): 233 mg/kg | Antisecretive activity (dose which reduces the gastric secretion by 50%) (gastric secretion [2]; oral, 5 hrs, 300 min): 220 mg/kg | Antisecretive activity (dose which reduces the gastric secretion by 50%) (gastric secretion [2]; oral, 10 hrs, 600 min): 337 mg/kg | Antisecretive activity (dose which reduces the gastric secretion by 50%) (gastric secretion [2]; oral, 15 hrs, 900 min): 580 mg/kg | Antispastic activity ED50 [3, 8]: 393 mg/kg

O=C(N[C@@H](Cc1c[nH]c2ccccc12)C(=O)O)c1ccc(Cl)cc1 [CR 501 aluminium salt, N-p-chloro-benzoyl-L-tryptophane aluminium salt]
Protective activity ED50 [1, 7]: 174 mg/kg/os | Solubility in ethanol (Solubility; listed as Example 56): Soluble | Solubility in methanol (Solubility; listed as Example 56): Soluble | Solubility in water (Solubility; listed as Example 56): very slightly soluble | Antisecretive activity (dose which reduces the gastric secretion by 50%) (gastric secretion [2]; oral, 2.5 hrs, 150 min): 195 mg/kg | Antisecretive activity (dose which reduces the gastric secretion by 50%) (gastric secretion [2]; oral, 5 hrs, 300 min): 152 mg/kg | Antisecretive activity (dose which reduces the gastric secretion by 50%) (gastric secretion [2]; oral, 10 hrs, 600 min): 150 mg/kg | Antisecretive activity (dose which reduces the gastric secretion by 50%) (gastric secretion [2]; oral, 15 hrs, 900 min): 163 mg/kg | Antispastic activity ED50 [3, 8]: 270 mg/kg

O=C(N[C@@H](Cc1c[nH]c2ccccc12)C(=O)O)c1ccc(Cl)cc1 [CR 501 magnesium salt, N-p-chloro-benzoyl-L-tryptophane magnesium salt]
Protective activity ED50 [1, 7]: 162 mg/kg/os | Solubility in ethanol (Solubility; listed as Example 55): soluble | Solubility in methanol (Solubility; listed as Example 55): soluble | Solubility in water (Solubility; listed as Example 55): Very slightly soluble | Antisecretive activity (dose which reduces the gastric secretion by 50%) (gastric secretion [2]; oral, 2.5 hrs, 150 min): 230 mg/kg | Antisecretive activity (dose which reduces the gastric secretion by 50%) (gastric secretion [2]; oral, 5 hrs, 300 min): 180 mg/kg | Antisecretive activity (dose which reduces the gastric secretion by 50%) (gastric secretion [2]; oral, 10 hrs, 600 min): 146 mg/kg | Antisecretive activity (dose which reduces the gastric secretion by 50%) (gastric secretion [2]; oral, 15 hrs, 900 min): 135 mg/kg | Antispastic activity ED50 [3, 8]: 278 mg/kg

Cc1ccc(C(=O)N[C@@H](Cc2c[nH]c3ccccc23)C(=O)O)cc1 [CR 510 - Calcium salt]
Protective activity ED50 [1, 7]: 390 mg/kg/os | Antisecretive activity (dose which reduces the gastric secretion by 50%) (gastric secretion [2]; oral, 2.5 hrs, 150 min): 602 mg/kg | Antisecretive activity (dose which reduces the gastric secretion by 50%) (gastric secretion [2]; oral, 5 hrs, 300 min): 574 mg/kg | Antisecretive activity (dose which reduces the gastric secretion by 50%) (gastric secretion [2]; oral, 10 hrs, 600 min): 521 mg/kg | Antisecretive activity (dose which reduces the gastric secretion by 50%) (gastric secretion [2]; oral, 15 hrs, 900 min): 666 mg/kg | Antispastic activity ED50 [3, 8]: 725 mg/kg

O=C([O-])[O-].[Ca+2] [Calcium carbonate, reference compound]
Protective activity ([1]; 140mg/kg, oral): inactive

O=C(N[C@@H](Cc1c[nH]c2ccccc12)C(=O)O)OCc1ccc([N+](=O)[O-])cc1 [Ex.12 (CR438), N-p-nitro-carbobenzoxy-L-tryptophane]
ED50 (gastric secretion [4]): 195 mg/kg | ED50 [1, 7]: 990 mg/kg | ED50 (gastric secretion [2]; 2.5 h, oral, 2.5 hrs): 475 mg/kg | ED50 (gastric secretion [2]; 5 h, oral, 5 hrs): 560 mg/kg | ED50 (gastric secretion [2]; 10 h, oral, 10 hrs): 980 mg/kg | ED50 (gastric secretion [2]; 15 h, oral, 15 hrs): > 1500 mg/kg | ED50 (gastric secretion [5]; [9]): 267 mg/kg | LD50 ([6]; iv): 700 mg/kg | ED50 [3, 10]: 870 mg/kg

Nc1ccc(C(=O)N[C@@H](Cc2c[nH]c3ccccc23)C(=O)O)cc1 [Ex.28 (CR504), N-p-amino-benzoyl-L-tryptophane]
ED50 (gastric secretion [4]): 205 mg/kg | ED50 [1, 7]: > 1500 mg/kg | ED50 (gastric secretion [2]; 2.5 h, oral, 2.5 hrs): 1080 mg/kg | ED50 (gastric secretion [2]; 5 h, oral, 5 hrs): 1090 mg/kg | ED50 (gastric secretion [2]; 10 h, oral, 10 hrs): 1490 mg/kg | ED50 (gastric secretion [2]; 15 h, oral, 15 hrs): > 2000 mg/kg | ED50 (gastric secretion [5]; [9]): 960 mg/kg | LD50 [6]: 1670 mg/kg | ED50 [3, 10]: > 1000 mg/kg

O=C(O)Cc1ccc(NC(=O)[C@H](Cc2c[nH]c3ccccc23)NC(=O)c2ccccc2)cc1 [Ex.41 (CR421), N-benzoyl-L-tryptophyl-p-aminophenylacetic acid]
ED50 (gastric secretion [4]): 186 mg/kg | ED50 (gastric secretion [5]; [11]): 322 mg/kg | ED50 (gastric secretion [5]; [9]): 322 mg/kg | LD50 [6]: 1000 mg/kg | ED50 [3, 12]: 170 mg/kg | Ratio 3/2 [3]: 2.0

O=C(N[C@@H](Cc1c[nH]c2ccccc12)C(=O)O)c1ccccc1Cl [Ex.50 (CR617), N-o-chlorobenzoyl-L-tryptophane]
ED50 (gastric secretion [4]): 255 mg/kg | ED50 (gastric secretion [5]; [11]): 299 mg/kg | ED50 (gastric secretion [5]; [9]): 299 mg/kg | LD50 [6]: 1270 mg/kg | ED50 [3, 12]: 300 mg/kg | Ratio 3/2 [3]: 1

O=C(N[C@@H](Cc1c[nH]c2ccccc12)C(=O)O)OCc1ccccc1Cl [Ex. 3 (CR460), N-o-chloro-carbobenzoxy-L-tryptophane]
ED50 (gastric secretion [4]): 267 mg/kg | ED50 (gastric secretion [5]; [11]): 118 mg/kg | ED50 (gastric secretion [5]; [9]): 118 mg/kg | LD50 ([6]; iv): 640 mg/kg | ED50 [3, 12]: 58 mg/kg | Ratio 3/2 [3]: 2.0

O=C(N[C@H](Cc1c[nH]c2ccccc12)C(=O)O)OCc1ccc(Cl)cc1 [Ex. 5 (CR630), N-p-chloro-carbobenzoxy-D-tryptophane]
ED50 (gastric secretion [4]): 107 mg/kg | ED50 (gastric secretion [5]; [13]): 142 mg/kg | LD50 ([6]; iv): 260 mg/kg

O=C(N[C@@H](Cc1c[nH]c2ccccc12)C(=O)O)OCc1ccc(I)cc1 [Ex. 7 (CR490), N-p-iodo-carbobenzoxy-L-tryptophane]
ED50 (gastric secretion [4]): 94 mg/kg | ED50 (gastric secretion [5]; [13]): 75 mg/kg | LD50 ([6]; iv): 166 mg/kg

N#Cc1ccc(COC(=O)N[C@@H](Cc2c[nH]c3ccccc23)C(=O)O)cc1 [Ex. 8 (CR496), N-p-cyano-carbobenzoxy-L-tryptophane]
ED50 (gastric secretion [4]): 340 mg/kg | ED50 (gastric secretion [5]; [13]): 202 mg/kg | LD50 ([6]; iv): 1070 mg/kg

N-p-bromobenzoyl-L-tryptophyl-phenylacetic acid [Ex.45 (CR511)]
Activity B: anti-secretive activity ED50 (gastric secretion [4]): 281 mg/k | Activity A: anti-secretive activity ED50 (gastric secretion [5]; [14]): 246 mg/kg | DL50 value [6]: 690 mg/kg

N-p-chlorobenzoyl-L-tryptophyl-phenylacetic acid [Ex.46 (CR589)]
Activity B: anti-secretive activity ED50 (gastric secretion [4]): 120 mg/k | Activity A: anti-secretive activity ED50 (gastric secretion [5]; [14]): 189 mg/kg | DL50 value [6]: 295 mg/kg
